Test results as given in ChEMBL document CHEMBL3797164, “Transfer of SAR information from hypotensive indazole to indole derivatives acting at α-adrenergic receptors: In vitro and in vivo studies” (Eur J Med Chem, 2016).

Assays:
[1] = molecular target: T1, Adrenergic receptor alpha-2 (Homo sapiens, UniProt P08913+P18825+P18089); assay: Agonist activity at human recombinant Alpha-2 adrenergic receptor expressed in CHOK1 cells after 30 mins by [35S]GTPgammaS binding assay; assay type: functional, cell-based; settings: cho-k1
T1 sequence (P08913 whole entry): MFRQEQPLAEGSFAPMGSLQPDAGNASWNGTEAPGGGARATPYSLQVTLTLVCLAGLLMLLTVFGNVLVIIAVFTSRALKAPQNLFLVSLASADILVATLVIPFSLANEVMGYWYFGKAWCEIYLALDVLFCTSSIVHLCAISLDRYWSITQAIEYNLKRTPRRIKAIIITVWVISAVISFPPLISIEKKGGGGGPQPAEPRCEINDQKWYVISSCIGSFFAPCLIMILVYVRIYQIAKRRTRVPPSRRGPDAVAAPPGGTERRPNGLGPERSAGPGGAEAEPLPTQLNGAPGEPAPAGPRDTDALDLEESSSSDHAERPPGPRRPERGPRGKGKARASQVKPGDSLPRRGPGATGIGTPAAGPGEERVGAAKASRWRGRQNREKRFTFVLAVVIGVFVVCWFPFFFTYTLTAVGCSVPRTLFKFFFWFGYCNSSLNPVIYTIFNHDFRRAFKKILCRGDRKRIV
T1 sequence (P18825 whole entry): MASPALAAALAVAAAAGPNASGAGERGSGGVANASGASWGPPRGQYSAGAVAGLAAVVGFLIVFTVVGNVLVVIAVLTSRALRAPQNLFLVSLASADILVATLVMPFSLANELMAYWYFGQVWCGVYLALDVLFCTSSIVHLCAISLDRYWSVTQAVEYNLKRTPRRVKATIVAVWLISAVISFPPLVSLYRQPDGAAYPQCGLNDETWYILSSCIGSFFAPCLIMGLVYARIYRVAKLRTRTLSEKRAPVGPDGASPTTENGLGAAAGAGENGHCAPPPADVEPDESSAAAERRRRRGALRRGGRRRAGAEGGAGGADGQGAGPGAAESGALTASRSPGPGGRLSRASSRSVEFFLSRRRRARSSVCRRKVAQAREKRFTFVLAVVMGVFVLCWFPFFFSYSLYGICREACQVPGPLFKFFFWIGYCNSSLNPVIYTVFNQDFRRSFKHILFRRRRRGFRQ
T1 sequence (P18089 whole entry): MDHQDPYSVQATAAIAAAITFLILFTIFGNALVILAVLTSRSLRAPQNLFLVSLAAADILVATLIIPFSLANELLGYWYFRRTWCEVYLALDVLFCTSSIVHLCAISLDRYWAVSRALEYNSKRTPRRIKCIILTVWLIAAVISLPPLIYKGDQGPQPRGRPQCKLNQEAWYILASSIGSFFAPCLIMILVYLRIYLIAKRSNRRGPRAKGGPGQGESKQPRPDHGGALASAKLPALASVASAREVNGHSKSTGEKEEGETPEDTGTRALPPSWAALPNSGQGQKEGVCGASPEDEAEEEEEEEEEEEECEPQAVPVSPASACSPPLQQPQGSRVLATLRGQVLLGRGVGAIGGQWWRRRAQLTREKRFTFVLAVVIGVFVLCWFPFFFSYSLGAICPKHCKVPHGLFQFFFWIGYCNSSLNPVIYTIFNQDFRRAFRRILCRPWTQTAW

[2] = tested on: Rattus norvegicus; assay: Neurotoxicity in Sprague-Dawley rat assessed as induction of sedative-hypnotic state at 10 to 500 ug/kg, ip after 30 mins by LORR test; assay type: toxicity, organism-based; settings: in vivo, 0.5 h
[3] = tested on: Rattus norvegicus; assay: Neurotoxicity in Sprague-Dawley rat assessed as induction of hind limb flexion at 1000 to 1500 ug/kg, ip after 15 to 30 mins by LORR test; assay type: toxicity, organism-based, Hindlimb; settings: in vivo
[4] = tested on: Rattus norvegicus; assay: Neurotoxicity in Sprague-Dawley rat assessed as exploratory behaviour changes at 10 to 2000 ug/kg, ip after 30 mins by LORR test; assay type: toxicity, organism-based; settings: in vivo, 0.5 h
[5] = tested on: Rattus norvegicus; assay: Neurotoxicity in Sprague-Dawley rat assessed as induction of forpaw grasping reflex at 1000 to 1500 ug/kg, ip after 15 to 30 mins by LORR test; assay type: toxicity, organism-based; settings: in vivo
[6] = tested on: Rattus norvegicus; assay: Neurotoxicity in Sprague-Dawley rat assessed as induction of resistance to lateral push at 1000 to 1500 ug/kg, ip after 15 to 30 mins by LORR test; assay type: toxicity, organism-based; settings: in vivo

SMILES | EC50 [1] [nM] | Activity [2] | Activity [3] | Activity [4] | Activity [5] | Activity [6]
Cl.Clc1cccc2ccn(CC3=NCCN3)c12 | 3600 | Non-toxic | Toxic | Non-toxic | Non-toxic | Non-toxic
Br.Cc1cccc2ccn(CC3=NCCN3)c12 | 7.9 | – | – | – | – | –
